For orientation: AC50 means the midpoint of the concentration-response curve, whichever way the signal moves.

Several values for one entry are separate records, joined by “and”; a condition that tells them apart may be missing. Equal entries are not always repeated.

The test system of the first assay is human bronchial epithelial cells, CFTR corrector, plate reader. Briefly: CFTR ΔF508 corrector activity in bronchial cells, dose response, human bronchial epithelial cells, plate reader, cherry-pick, two tests (AID 743267). Conditions: measured here: test 1 replicate run.
Regarding `N#C[C@@H]1[C@H](c2ccc(-c3cccc(F)c3)cc2)[C@H](CO)N1C(=O)NC1CCCC1`, the half-maximal activity concentration (AC50) was greater than 50 µM.

Regarding `C[C@@H]1CN([C@H](C)CO)S(=O)(=O)c2ccc(-c3ccccc3)cc2O[C@H]1CN(C)Cc1ccccn1`, the AC50 stood at 16 µM. On the same count and under the same terms, under `COc1cccc(-c2ccc(C3[C@@H]4CN(S(=O)(=O)c5cccc(OC)c5)C[C@H]3N4)cc2)c1` (stereo partly specified) stands 13.5 µM; under `C[C@@H]1CN([C@@H](C)CO)C(=O)Cc2cc(NC(=O)Nc3cccc4ccccc34)ccc2O[C@@H]1CN(C)Cc1ccc(Cl)c(Cl)c1`, 2.12 µM. The same measure, in the same setting: to `CN1c2ccc(-c3ccc(C#N)cc3)cc2[C@H]2[C@H](CCN2S(=O)(=O)c2cccc(F)c2)[C@@H]1CO` belongs 16 µM. Same read-out and setting: to `C[C@H](CO)N1C[C@H](C)[C@H](CN(C)C(=O)NC2CCCCC2)Oc2cc(C#Cc3ccc(F)cc3)ccc2S1(=O)=O` belongs 7.62 µM; to `CN1C(=O)c2cc(NC(=O)c3ccc(Cl)cc3)ccc2OC[C@@H]2O[C@H](CC(=O)NCc3cccc(F)c3)CC[C@H]21`, 4.62 µM.

Still in this assay, the particulars now being: measured here: test 2 replicate run.
The molecule `O=c1[nH]c(CN2CCN(c3ccc(O)cc3)CC2)nc2scc(-c3ccc(Cl)cc3)c12` displayed a concentration at half-maximal activity (AC50) of 6.45 µM. Molecule `Cc1ccc2nc(-c3ccc4c(c3)OCCO4)cn2c1` displayed an AC50 of 2.33 µM. The molecule `O=C1c2cccc3c(O)ccc(c23)C(=O)N1c1ccc(Cl)cc1` yielded an AC50 of 16.8 µM. Still for that read-out and setting: to `CCN(CC)c1ccc(/C=C(/C#N)c2nc3ccc(C)cc3[nH]2)c(OC(C)C)c1` belongs 9.34 µM.

On to `O=c1c(O)c(-c2cccs2)oc2ccc(Cl)cc12`, for which the concentration at half-maximal activity (AC50) was 6.12 µM. Molecule `NC1(C(=O)O)CC1` registered a half-maximal activity concentration (AC50) greater than 50 µM. On the same count and under the same terms, to `Cc1ccc(C)c(C2NC(=O)c3ccccc3N2)c1` (stereo unspecified) belongs 2.91 µM. Same read-out and setting: under `CC(=O)NC(c1ccc(Cl)cc1Cl)c1ccc2cccnc2c1O` (stereo unspecified) stands 2.63 µM. Same read-out and setting: to `Cc1c(OCC(=O)NCCN2CCOCC2)ccc2c3c(c(=O)oc12)CCC3` belongs greater than 50 µM; to `COCCNc1nc(Nc2ccc(C)cc2C)c2sccc2n1`, 2.34 µM; to `COC(=O)COc1cccc2c(=O)n(CC(=O)NCc3ccccc3)ccc12`, 5.25 µM. `C/C(=N\NC(=O)c1c(Cl)c(C)nn1C)c1ccc(NC(=O)C2CCC2)cc1` yielded an AC50 of 1.1 µM. The same measure, in the same setting: under `NS(=O)(=O)c1ccc(S(=O)(=O)N(CCc2ccccc2)Cc2ccccn2)cc1` stands less than 0.0235 µM; under `CCN(CC)CCC(=O)Nc1cccc2c1C(=O)c1ccccc1C2=O`, 2.98 µM. Turning to `COCCNC(=O)NC12CC3(C)CC(C)(CC(C)(C3)C1)C2`, the concentration at half-maximal activity (AC50) is greater than 50 µM.

`CC(C)CN(CCCNC(=O)CN1C(=O)CSc2ccc(S(=O)(=O)N3CCOCC3)cc21)CC(C)C` returned an AC50 greater than 50 µM. Molecule `O=P(Oc1ccc(-c2ccccc2)cc1)(N1CC1)N1CC1` showed a concentration at half-maximal activity (AC50) greater than 50 µM.

For the molecule `O=C1NC(=O)C(=Cc2ccc(N3CCOCC3)o2)C(=O)N1`, the AC50 was greater than 50 µM. Molecule `O=C(N/N=C/c1c(O)ccc2ccccc12)c1ccc(Br)o1` displayed an AC50 of 6.34 µM. As to `COC(=O)c1ccccc1-c1c2ccc(=N)cc-2oc2cc(N)ccc12`, the AC50 is 0.181 µM. `N#CC1=C(N)Oc2c(ccc3cccnc23)C1c1ccccc1` (stereo unspecified) gave a half-maximal activity concentration (AC50) of 2.97 µM. Still for that read-out and setting: under `CCN(C(=O)CSc1nc2ccccc2c(=O)n1-c1ccccc1F)C1CCS(=O)(=O)C1` (stereo unspecified) stands 0.253 µM; under `Cc1ccc2c(CN3CCN(S(=O)(=O)c4ccc(Cl)cc4)CC3)cc(=O)oc2c1C`, 11.6 µM. As to `N#Cc1c(-c2ccc(F)cc2)c(-c2ccc(F)cc2)nn(CCO)c1=O`, the AC50 stood at 2.57 µM. Still for that read-out and setting: under `O=S1(=O)c2ccc(Br)cc2N2CCC[C@H]2CN1Cc1ccccc1` stands 1.77 µM. `CC(C)Nc1ccc(Nc2ccnc3cc4ccccc4cc23)cc1` returned an AC50 of 7.34 µM. Molecule `CCCC(=O)Nc1nc2ccc(NC(=O)c3c(F)c(F)c(OC)c(F)c3F)cc2s1` showed a concentration at half-maximal activity (AC50) of 1.13 µM. Turning to `Clc1ccc2c(c1)-c1ccccc1C1=NCCN12`, the concentration at half-maximal activity (AC50) came to 2.72 µM. `Cn1c(=O)c(NC2CCCCC2)c2c3c(cccc31)C(=O)c1ccccc1-2` came in with an AC50 of 8.48 µM. On the same count and under the same terms, under `COc1ccc(-c2cnc3c(NC=O)cc(-c4ccccc4)cn23)cc1OC` stands 0.793 µM. On to `O=C1c2ccccc2C(=O)N1Cc1cnc(N2CCN(c3ccccc3)CC2)s1`, for which the AC50 worked out at 44.1 µM.

Molecule `CC(=O)O[C@H]1C(=O)[C@@]2(C)[C@H]([C@H](OC(=O)c3ccccc3)[C@]3(O)C[C@H](OC(=O)[C@H](O)C(NC(=O)c4ccccc4)c4ccccc4)C(C)=C1C3(C)C)[C@]1(OC(C)=O)CO[C@@H]1C[C@@H]2O` (stereo partly specified) came in with an AC50 of 3.59 µM. Take `COc1ccc([C@H]2CC(=O)C=C(c3c(OC)cccc3OC)C2)cc1`: the AC50 was 6.28 µM. The same measure, in the same setting: to `COc1cc(C(=O)Nc2ccc3c(c2)CCN3C(C)=O)cc(OC)c1OC` belongs 3.56 µM.

`Cc1nnc(NC(=O)CSc2nccn2-c2cccc(C)c2C)s1` yielded an AC50 of 7.08 µM. Regarding `O=c1ccc2[n+]([O-])c3ccc(O)cc3oc-2c1`, the AC50 stood at 26.3 µM. In turn, `Cc1cc2c(cc1S(=O)(=O)Nc1ccc(F)cc1)n(C)c(=O)c(=O)n2C` showed an AC50 of 43.2 µM. In the case of `COC(=O)c1cc(C(=O)N2CCN(c3cccc(Cl)c3)CC2)cc([N+](=O)[O-])c1`, the concentration at half-maximal activity (AC50) worked out at 0.383 µM. Same read-out and setting: to `C[n+]1c2cc(N)ccc2cc2ccc(N)cc21` belongs 3.52 µM and 2.96 µM. The same measure, in the same setting: under `NCC(=O)NNC(=O)OCC1c2ccccc2-c2ccccc21` stands 7.38 µM.

Regarding `CC(=O)OCCn1c2nc(=O)[nH]c(=O)c-2nc2cc(C)c(C)cc21`, the AC50 worked out at 15.3 µM.

In the case of `Cc1cc(C(=O)N2CC=C(c3ccccc3)CC2)c2ccccc2n1`, the half-maximal activity concentration (AC50) came out at 0.66 µM. As for `Cc1cccc(NC(=O)CN2CCN(C(=O)CN3C(=O)NC4(CC(C)CC(C)(C)C4)C3=O)CC2)c1C` (stereo unspecified), the AC50 was found to be 2.69 µM.

For `COC(=O)C1=CN(c2ccc(OC)cc2OC)C(N)=C(C#N)C1c1ccccc1F` (stereo unspecified), the AC50 came to 1.23 µM. On the same count and under the same terms, under `COc1ccc([C@H]2CC(=O)C=C(c3ccc(OC)cc3OC)C2)cc1` stands 0.681 µM; under `CCOC(=O)[C@]12CCCC=C1N(Cc1cccc3ccccc13)C(=O)[C@H](CC(=O)NCc1cccc(C(F)(F)F)c1)C2`, 30 µM; under `CC(=O)c1cccc(-c2ccnc3c2CC(C(=O)NCc2ccco2)O3)c1` (stereo unspecified), 2.01 µM. On the same count and under the same terms, under `CCN(CC)C(=O)c1oc2ccc(S(=O)(=O)N3CC(C)CC(C)C3)cc2c1C` (stereo unspecified) stands 10.5 µM; under `COc1cc(OC)c2c(-c3cccc(-c4sccc4C(C)=O)c3)cc(=O)oc2c1`, 12.2 µM. The molecule `COc1ccc(-c2csc(NC(=S)NC(=O)/C=C/c3ccco3)n2)cc1OC` registered a concentration at half-maximal activity (AC50) of 2.19 µM. With `C[C@@H]1O[C@@H](O[C@@H]2C=C3CC[C@@H]4C(CC[C@]5(C)[C@@H](c6ccc(=O)oc6)CC[C@]45O)[C@@]3(C)CC2)[C@H](O)[C@H](O)[C@H]1O` (stereo partly specified), the AC50 was determined as 1.42 µM. Take `C=CCN=c1scc(C)n1/N=C/c1ccc(O)c(O)c1`: the AC50 is greater than 50 µM. Still for that read-out and setting: under `C=CCCC(=O)Nc1nc(C)c(-c2csc(Nc3cc(OC)ccc3OC)n2)s1` stands 10.3 µM; under `CCOC(=O)c1cc2c(=Cc3ccc(N(C)C)cc3)c3ccccc3n2[n+]1C`, 5.09 µM. On the same count and under the same terms, under `Cc1ccc(OCC(=O)Nc2ccc3c(c2)ncn3C)cc1` stands greater than 50 µM; under `Cc1cc(C(=O)N/N=C/c2ccc3c(c2)OCO3)c2ccccc2n1`, 3.76 µM.

`Nc1ccn([C@@H]2O[C@H](C(=O)NCC(F)(F)F)[C@@H](O)[C@H]2O)c(=O)n1` displayed an AC50 greater than 50 µM.

Regarding `CN(Cc1ccccc1)S(=O)(=O)c1ccc(NC(=S)NC(=O)C2CCCC2)cc1`, the AC50 stood at 5.32 µM. For the molecule `C=CCn1c(SCC(=O)N(C)C2CCS(=O)(=O)C2)nc2ccccc2c1=O` (stereo unspecified), the concentration at half-maximal activity (AC50) worked out at 26.7 µM. On the same count and under the same terms, under `Cc1ccc(S(=O)(=O)N[C@H](C(=O)OCC(=O)NC(=O)C2CCCCC2)C(C)C)cc1` stands 38.6 µM.

The molecule `CC(C)n1cc(/C=C/c2cc[n+](C)cc2)c2ccccc21` displayed an AC50 of 27.2 µM.

Take `CN(CCOc1ccc(Cl)cc1)C(=O)c1cccc(S(=O)(=O)N2CCN(c3ccccc3)CC2)c1`: the AC50 turned out to be 16 µM. `CCOC(=O)c1ccc(N2CCOCC2)c(NC(=O)c2c(-c3ccccc3)noc2C)c1` came in with an AC50 of 4.89 µM.

Take `CC1=Nc2cc(C(=O)NCC3CCCO3)ccc2Sc2ccc(C)cc21` (stereo unspecified): the AC50 came to 2.57 µM. On the same count and under the same terms, under `Cc1ccc(NC(=O)c2ccc(Cl)c(S(=O)(=O)Nc3c(C)n(C)n(-c4ccccc4)c3=O)c2)cc1Cl` stands 30.3 µM.

`C=C1C(=O)O[C@@H]2C[C@@H](C)[C@@H]3C=CC(=O)[C@@]3(C)[C@@H](O)[C@H]12`: the half-maximal activity concentration (AC50) stood at 0.989 µM. Turning to `COc1ccc(-c2ccc(OC)c(OC)c2OC)cc1`, the AC50 was 3.92 µM. As for `CC1=Nc2cc(C(=O)NCC3CCCO3)ccc2Sc2ccc(Br)cc21` (stereo unspecified), the AC50 worked out at 9.45 µM. The same measure, in the same setting: under `O=C(CCc1ccccc1)NCC(c1ccco1)N1CCc2ccccc21` (stereo unspecified) stands 4.6 µM. The molecule `Cn1nccc1C(=O)N/N=C/c1c(O)ccc2ccccc12` came in with a concentration at half-maximal activity (AC50) of 19.2 µM. Still for that read-out and setting: to `O=C(O)c1ccccc1-c1c2cc(I)c(=O)c(I)c-2oc2c(I)c(O)c(I)cc12` belongs 16.7 µM; to `CN(C)CCCNc1c2ccccc2nc2ccccc12`, 0.879 µM. The same measure, in the same setting: to `NS(=O)(=O)c1ccc(NNC(=O)c2ccc(Br)o2)c([N+](=O)[O-])c1` belongs 8.91 µM; to `Cc1cc(NCc2ccccn2)n2ncc(-c3ccccc3)c2n1`, 15.9 µM.

Molecule `Cc1cccc(N(C)C(=O)c2cc3c(=O)[nH]c4ccc(C)cc4c3s2)c1` had a half-maximal activity concentration (AC50) of 4.72 µM.

Regarding `Cc1cc(N/N=C/c2ccccc2O)c2ccccc2n1`, the half-maximal activity concentration (AC50) was 21.1 µM.

In turn, `Fc1ccccc1/C=N/NC(=S)Nc1ccc(Cl)cc1Cl` showed a concentration at half-maximal activity (AC50) of 1.62 µM. On the same count and under the same terms, under `COC(=O)Cn1c(=NC(=O)c2cc(-c3cccs3)nc3ccccc23)sc2cc(S(N)(=O)=O)ccc21` stands greater than 50 µM. On the same count and under the same terms, to `Cc1cccc(NS(=O)(=O)c2ccc(-c3cnc(C4CC4)o3)cc2)c1` belongs 1.59 µM; to `COc1cccc(C(=O)Nc2sc3c(c2C#N)CCN(C(C)=O)C3)c1`, 1.36 µM. Molecule `COc1cc(OC)c2c(-c3cccc(-c4ccc(OC)c(OC)c4)c3)cc(=O)oc2c1` displayed a concentration at half-maximal activity (AC50) of 0.594 µM.

`CCOc1ccc(-c2cc(C(=O)N3CCN(c4ccccn4)CC3)c3ccccc3n2)cc1` registered an AC50 of 16 µM. Same read-out and setting: to `CCc1ccc(N2CC(C(=O)Nc3ccccc3N3CCCC3)CC2=O)cc1` (stereo unspecified) belongs 28.7 µM; to `NS(=O)(=O)c1cc(Cl)c(Cl)c(S(N)(=O)=O)c1`, 0.0468 µM.

Source of the values: PubChem BioAssay AID743267 (Broad Institute, 2014).
